According to US20160257697A1, “THIOPHENE-SUBSTITUTED TETRACYCLIC COMPOUNDS AND METHODS OFUSE THEREOF FOR THE TREATMENT OF VIRAL DISEASES” (priority 2013, published 2016):
Read-outs that look alike come from different tables or passages of the source.

Key:
Experiment in all cases: microbe, parasite or virus in culture
Format in all cases: cell-based, Hepatitis C virus (HCV)
[1] = test system: HCV replicon 2B; conditions: Replicon Assay A
Procedure, shortened: (§1)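 Cells seeded 2000/well + compound; 0.5% DMSO, 5% FBS; harvest day 3, lyse. Multiplex TaqMan RT-PCR for replicon (Neo probe) and cyclophilin RNA; amounts from Ct vs log(ng) linear regression of replicon total RNA standards.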

[2] = test system: HCV replicon 1A; conditions: Replicon Assay A
Procedure, shortened: as §1

[3] = test system: HCV replicon 1AY93H; conditions: Replicon Assay A
Procedure, shortened: as §1

[4] = test system: HCV replicon 1AQ30D; conditions: Replicon Assay B
[5] = test system: HCV replicon 1B; conditions: Replicon Assay B
[6] = read-out: 1A Y93H IC50, replicon 1AY93H
[7] = read-out: 1A Q30D IC50, replicon 1AQ30D
[8] = read-out: 2B IC50, HCV replicon 2B
[9] = read-out: 1A Y93H IC50, HCV replicon 1A Y93H
[10] = read-out: 1A Q30D IC50, HCV replicon 1A Q30D
[11] = Hepatitis C virus, read-out: 2B IC50, HCV replicon 2B
[12] = Hepatitis C virus, HCV replicon 1A
[13] = Hepatitis C virus, read-out: 1A Y93H IC50, HCV replicon 1A Y93H
[14] = Hepatitis C virus, read-out: 1A Q30D IC50, HCV replicon 1A Q30D
[15] = Hepatitis C virus, HCV replicon 1B
[16] = Hepatitis C virus, read-out: 1A Q30D IC50 (nM), replicon 1AQ30D

Compound | IC50 ([1]; read-out: 2B IC50, replicon 2B) [nM] | IC50 ([2]; replicon 1A) [pM] | IC50 [3, 6] [nM] | IC50 [4, 7] [nM] | IC50 ([5]; replicon 1B) [pM] | IC50 [1, 8] [nM] | IC50 ([2]; HCV replicon 1A) [pM] | IC50 [3, 9] [nM] | further results
COC(=O)NC(C(=O)N1CCC[C@H]1c1ncc(-c2ccc3c(c2)cc2n3C(c3cc4ccccc4s3)Oc3cc(-c4cnc([C@@H]5CCCN5C(=O)[C@@H](NC(=O)OC)C5CCOCC5)[nH]4)cc(F)c3-2)[nH]1)C(C)(C)F (single isomer, unassigned) [Compound 185] | 1.35 | 4.6 | 2.4 | 2.95 | 2.6 |  |  |  | 
COC(=O)N[C@H](C(=O)N1CCC[C@H]1c1ncc(-c2cc(F)c3c(c2)OC(c2cc4c(s2)CCC4)n2c-3cc3cc(-c4cnc([C@@H]5CCCN5C(=O)[C@@H](NC(=O)OC)C5CCOCC5)[nH]4)ccc32)[nH]1)C(C)C (single isomer, unassigned) [Compound 622] |  |  |  |  |  | 0.0068 | 2.4 | 0.0044 | IC50 [4, 10]: 0.0594 nM; IC50 ([5]; HCV replicon 1B): 2.2 pM
COC(=O)NC(C(=O)N1CCC[C@H]1c1ncc(-c2ccc3c(c2)cc2n3C(c3ccc(C4CC4)s3)Oc3cc(-c4cnc([C@@H]5CCCN5C(=O)[C@@H](NC(=O)OC)C(C)C)[nH]4)cc(F)c3-2)[nH]1)C1CCO[C@H](C)C1 (single isomer, unassigned) [Compound 135] | 0.006 | 2.4 | 0.004 | 0.027 | 3 |  |  |  | 
COC(=O)NC(C(=O)N1[C@@H]2C[C@@H]2C[C@H]1c1ncc(-c2ccc3c(c2)cc2n3C(c3ccc(CC4CC4)s3)Oc3cc(-c4cnc([C@@H]5CCCN5C(=O)[C@@H](NC(=O)OC)C(C)C)[nH]4)cc(F)c3-2)[nH]1)C1CCOC(C)(C)C1 (single isomer, unassigned) [Compound 417] |  |  |  |  |  | 0.0098 | 3.4 | 0.119 | IC50 [4, 10]: 0.0738 nM; IC50 ([5]; HCV replicon 1B): 6 pM
COC(=O)N[C@H](C(=O)N1CCC[C@H]1c1ncc(-c2cc(F)c3c(c2)OC(c2ccc(C4CC4)s2)n2c-3cc3cc(-c4cnc([C@@H]5C[C@@H](F)CN5C(=O)[C@@H](NC(=O)OC)C(C)C)[nH]4)ccc32)[nH]1)C(C)C (stereo partly shown) [Compound 757] |  |  |  |  |  |  |  |  | IC50 [1, 11]: 2.4 nM; IC50 [2, 12]: 2.7 pM; IC50 [3, 13]: 0.013 nM; IC50 [4, 14]: 2.85 nM; IC50 [5, 15]: 3 pM
CCc1ccc(C2Oc3cc(-c4cnc([C@@H]5CCCN5C(=O)C(NC(=O)OC)C5CCOC(C)(C)C5)[nH]4)cc(F)c3-c3cc4cc(-c5cnc([C@@H]6CCCN6C(=O)C(NC(=O)OC)C6CCOC(C)(C)C6)[nH]5)ccc4n32)s1 (single isomer, unassigned) [Compound 296] | 0.005 | 2.8 | 0.002 | 0.005 | 3.3 |  |  |  | 
COC(=O)N[C@H](C(=O)N1CCC[C@H]1c1ncc(-c2cc(F)c3c(c2)OC(c2ccc(CCF)s2)n2c-3cc3cc(-c4cnc([C@@H]5CCCN5C(=O)[C@@H](NC(=O)OC)C(C)C)[nH]4)ccc32)[nH]1)C(C)C (single isomer, unassigned) [Compound 44] | 0.1 | 1.5 | 0.012 |  |  |  |  |  | IC50 [4, 16]: 0.54 nM; IC50 ([5]; Hepatitis C virus, replicon 1B): 1.2 pM
COC(=O)NC(C(=O)N1CCC[C@H]1c1ncc(-c2ccc3c(c2)cc2n3C(c3ccc(C4CC4)s3)Oc3cc(-c4cnc([C@@H]5CCCN5C(=O)[C@@H](NC(=O)OC)C(C)C)[nH]4)cc(F)c3-2)[nH]1)C1CCOC(C)(C)C1 (stereo partly shown) [Compound 219] | 0.005 | 2.2 | 0.003 | 0.034 | 3.2 |  |  |  | 
COC(=O)N[C@H](C(=O)N1CCC[C@H]1c1ncc(-c2cc(C)c3c(c2)OC(c2ccc(C4CC4)s2)n2c-3cc3cc(-c4cnc([C@@H]5C[C@H]6C[C@H]6N5C(=O)[C@@H](NC(=O)OC)C5CCOCC5)[nH]4)ccc32)[nH]1)C(C)C (single isomer, unassigned) [Compound 763] |  |  |  |  |  | 0.062 | 2.7 | 0.12 | IC50 [4, 10]: 2.15 nM; IC50 ([5]; HCV replicon 1B): 2.5 pM
COC(=O)N[C@H](C(=O)N1CCC[C@H]1c1ncc(-c2ccc3c(c2)OC(c2cc4sccc4s2)n2c-3cc3cc(-c4c[nH]c([C@@H]5C[C@H]6C[C@H]6N5C(=O)[C@@H](NC(=O)OC)C(C)C)n4)ccc32)[nH]1)C(C)C (single isomer, unassigned) [Compound 716] |  |  |  |  |  | 2.33 | 3.8 | 1.28 | IC50 [4, 14]: 28 nM; IC50 [5, 15]: 4 pM
COC(=O)N[C@H](C(=O)N1CCC[C@H]1c1ncc(-c2cc(F)c3c(c2)OC(c2ccc(C4(O)CC4)s2)n2c-3cc3cc(-c4cnc([C@@H]5CCCN5C(=O)[C@@H](NC(=O)OC)C(C)C)[nH]4)ccc32)[nH]1)C(C)C (single isomer, unassigned) [Compound 60] |  |  |  |  |  |  |  |  | IC50 ([1]; Hepatitis C virus, read-out: 2B IC50 (nM), replicon 2B): 0.023 nM; IC50 ([2]; Hepatitis C virus, replicon 1A): 1.5 pM; IC50 ([3]; Hepatitis C virus, read-out: 1A Y93H IC50 (nM), replicon 1AY93H): 0.014 nM; IC50 [4, 16]: 0.35 nM; IC50 ([5]; Hepatitis C virus, replicon 1B): 1.3 pM
COC(=O)N[C@H](C(=O)N1CCC[C@H]1c1ncc(-c2cc(F)c3c(c2)OC(c2ccc(C(F)F)s2)n2c-3cc3cc(-c4cnc([C@@H]5CCCN5C(=O)[C@@H](NC(=O)OC)C(C)C)[nH]4)ccc32)[nH]1)C(C)C (single isomer, unassigned) [Compound 45] |  | 1.1 |  |  | 1.1 |  |  |  | IC50 ([1]; replicon 2B, read-out: 2B IC50): 0.044 nM; IC50 ([3]; replicon 1AY93H, read-out: 1A Y93H IC50): 0.01 nM; IC50 ([4]; replicon 1AQ30D, read-out: 1A Q30D IC50): 0.37 nM
COC(=O)NC(C(=O)N1CCC[C@H]1c1ncc(-c2ccc3c(c2)cc2n3C(c3ccc(C4CC4)s3)Oc3cc(-c4cnc([C@@H]5CCCN5C(=O)[C@@H](NC(=O)OC)C(C)C)[nH]4)cc(F)c3-2)[nH]1)C1CCO[C@H](C)C1 (single isomer, unassigned) [Compound 136] | 0.23 | 1.8 | 0.2 | 0.9 | 1.7 |  |  |  | 
COC(=O)NC(C(=O)N1CCC[C@H]1c1ncc(-c2ccc3c(c2)cc2n3C(c3ccc(C4CC4)s3)Oc3cc(-c4cnc([C@@H]5CCCN5C(=O)[C@@H](NC(=O)OC)C(C)C)[nH]4)cc(F)c3-2)[nH]1)C1CCO[C@H](C)C1 (single isomer, unassigned) [Compound 138] | 0.061 | 1.3 | 0.019 | 0.67 | 1.4 |  |  |  | 
COC(=O)N[C@H](C(=O)N1CCC[C@H]1c1ncc(-c2cc(C)c3c(c2)OC(c2ccc(C4CC4)s2)n2c-3cc3cc(-c4cnc([C@@H]5C[C@H]6C[C@H]6N5C(=O)[C@@H](NC(=O)OC)C5CCOCC5)[nH]4)ccc32)[nH]1)C(C)C (single isomer, unassigned) [Compound 764] |  |  |  |  |  | 0.0052 | 3.6 | 0.0044 | IC50 [4, 10]: 0.024 nM; IC50 ([5]; HCV replicon 1B): 2.2 pM
COC(=O)N[C@H](C(=O)N1CCC[C@H]1c1ncc(-c2cc(F)c3c(c2)OC(c2ccc(C4CC4)s2)n2c-3cc3cc(-c4cnc([C@@H]5CCCN5C(=O)[C@@H](NC(=O)OC)C5CC6(COC6)C5)[nH]4)ccc32)[nH]1)C(C)C (mixture of isomers) [Compound 531] |  |  |  |  |  |  |  |  | IC50 [1, 11]: 4.32 nM; IC50 [2, 12]: 9.09 pM; IC50 [3, 13]: 0.912 nM; IC50 [4, 14]: 3.98 nM; IC50 [5, 15]: 1300 pM
COC(=O)N[C@H](C(=O)N1CCC[C@H]1c1nc(-c2cc(F)c3c(c2)OC(c2ccc(C)s2)n2c-3cc3cc(-c4cnc([C@@H]5CCCN5C(=O)[C@@H](NC(=O)OC)C5CCOCC5)[nH]4)ccc32)c[nH]1)C(C)C (stereo partly shown) [Compound 59] | 0.007 | 1.3 | 0.004 | 0.018 | 3.5 |  |  |  | 
COC(=O)N[C@H](C(=O)N1CCC[C@H]1c1ncc(-c2cc(F)c3c(c2)OC(c2cc4c(s2)CCC4)n2c-3cc3cc(-c4cnc([C@@H]5C[C@H]6C[C@H]6N5C(=O)[C@@H](NC(=O)OC)C5CCOCC5)[nH]4)ccc32)[nH]1)C(C)C (single isomer, unassigned) [Compound 541] |  |  |  |  |  | 0.096 | 14.8 | 2.19 | IC50 [4, 14]: 0.303 nM; IC50 ([5]; HCV replicon 1B): 23.7 pM
COC(=O)N[C@H](C(=O)N1CCC[C@H]1c1ncc(-c2cc(F)c3c(c2)OC(c2ccc(C#N)s2)n2c-3cc3cc(-c4cnc([C@@H]5CCCN5C(=O)[C@@H](NC(=O)OC)C(C)C)[nH]4)ccc32)[nH]1)C(C)C (single isomer, unassigned) [Compound 17] | 0.54 |  | 0.19 | 2.91 |  |  |  |  | IC50 ([2]; Hepatitis C virus, replicon 1A): 2.6 pM; IC50 ([5]; Hepatitis C virus, replicon 1B): 2.1 pM
CCc1ccc(C2Oc3cc(-c4cnc([C@@H]5CCCN5C(=O)[C@@H](NC(=O)OC)C(C)C)[nH]4)ccc3-c3c(F)c4cc(-c5cnc([C@@H]6CCCN6C(=O)[C@@H](NC(=O)OC)C(C)C)[nH]5)ccc4n32)s1 (single isomer, unassigned) [Compound 602] |  |  |  |  |  | 0.143 | 1 | 0.066 | IC50 [4, 14]: 0.597 nM; IC50 [5, 15]: 1.7 pM
